Laboratory results reported in patent US20160077079A1, “THE CHILDREN'S HOSPITAL OF PHILADELPHIA” (THE CHILDREN'S HOSPITAL OF PHILADELPHIA, priority 2013, published 2016).

Key:
NCI-H716 = experiment: GLP-1 secretion in NCI-H716 L-cells, GLP-1 concentration by ELISA; assay type: cell-based, human; details: NCI-H716 cells pre-treated 48 hours with inhibitor
Description: Glucagon-like peptide-1 (GLP-1) has numerous physiological functions, including enhancement of glucose-stimulated insulin secretion, stimulation of β-cell anti-apoptosis and proliferation and inhibition of glucagon secretion, food intake and gastric emptying. These antidiabetic properties of GLP-1 have generated intense interest in the use of this short peptide and its agonists for the treatment of patients with type 2 diabetes. A better understanding of the underlying mechanism of GLP-1 secretion may lead to novel approaches used for the treatment of type 2 diabetes. TCF7L2 is the most strongly associated locus with type 2 diabetes and has been known to bind with the promoter region of the proglucagon gene for many years. […] As such, we investigated if existing PARP-1 inhibitors, previously tested in oncology studies, could have a GLP-1 agonist effect. We leveraged the standard human L-cell line, NCI-H716, for GLP-1 secretion assessment to investigate this possible link. We pre-treated the cells for 48 hours with three different PARP-1 inhibitors, Olaparib, Rucaparib and Iniparib, with or without glucose stimulation (16.8 mM). We measured the resulting GLP-1 concentration using an ELISA kit (Millipore).

[1] = system: SNP rs7903146 region of TCF7L2 (HCT116 nuclear extracts); experiment: SILAC oligo pull-down quantifying protein binding to the SNP rs7903146 oligonucleotide with and without insulin treatment; assay type: cell-based, human; details: HCT116 cells, 1 uM insulin for 1 hour
Experimental: Human HCT 116 cells were cultured in DMEM (4.5 g/l glucose, 10% FCS, 100 U/mL penicillin and 100 íg/mL streptomycin). For insulin stimulation experiments, cells were treated with 1 uM insulin for 1 hour. For SILAC experiments, Cultures were grown according to standard cell-culture procedures in SILAC-light and SILAC-heavy labeled Dulbecco's Modified Eagle Medium (DMEM, ThermoFisher) supplied with 10% dialyzed fetal bovine serum (FBS), ^13C6-lysine and ^13C6-arginine. Cells were washed by cold phosphate-buffered saline (PBS) and harvested by scraping, centrifugation for 5 min at 5000 rpm at 4° C. 10^8 Cells were lysed in 250 ul low salt buffer (10 mM HEPES, 1.5 mM MgCl2, 10 mM KCl, 0.5% NP-40, proteasome inhibitor, phosphatase inhibitor, 10% glycerol, pH 7.9) by incubation on ice for 20 min with vortex 10 seconds per 5 minutes. The nuclei were separated from cytoplasmic fraction by centrifugation 10,000 rpm for 1 min at 4° C. The nuclei pellets were washed once by cold low salt buffer, harvested by centrifugation. […]
The sample was digested with trypsin and analyzed with nanoLC/MS/MS at the Penn Proteomics Core. […] The data were analyzed with Sequest (ThermoFinnigan, San Jose, Calif.; version SRF v. 5). […] The quantification of the SILAC peaks was performed with ProteolQ with customized modification so that the software can use the zoom scanned SLICA peaks for quantification.
To investigate dynamic binding of Parp-1, ATP-dependent RNA helicase A and Thrap3 for the SNP rs7903146 region, we used stable isotope labeling with amino acids in cell culture (SILAC) (Ong, Blagoev et al. 2002) to quantify the binding affinity changes between with and without insulin treatment.
The heavy cells were isotopically labeled in SILAC medium supplied with ^13C6-lysine and ^13C6-arginine and treated with insulin, while the light cells […] served as a control. […] With this approach, we quantified the relative protein abundances including Parp-1, ATP-dependent RNA helicase A and Thrap3 between treatment and without treatment of insulin.

[2] = absence of glucose, compared with glucose-elevated level
[3] = with glucose stimulation (16.8 mM)

Row | Compound | GLP-1 secretion (GLP-1 concentration by ELISA) (NCI-H716; [2]) | GLP-1 secretion (GLP-1 concentration by ELISA) (NCI-H716; [3]) | ATP-dependent RNA helicase A binding to rs7903146 oligo, increase upon insulin stimulation [1] [fold] | Parp-1 binding to rs7903146 oligo, up-regulation upon insulin stimulation [1] [%] | Thrap3 binding to rs7903146 oligo, increase upon insulin stimulation [1] [fold]
1 | O=C(c1cc(Cc2n[nH]c(=O)c3ccccc23)ccc1F)N1CCN(C(=O)C2CC2)CC1 [Olaparib] | equal or greater level of GLP-1 secretion | elevated further | – | – | –
2 | insulin | – | – | 12 | 20 | 7
3 | CNCc1ccc(-c2[nH]c3cc(F)cc4c3c2CCNC4=O)cc1 [Rucaparib] | equal or greater level of GLP-1 secretion | elevated further | – | – | –
4 | NC(=O)c1ccc(I)c([N+](=O)[O-])c1 [Iniparib] | equal or greater level of GLP-1 secretion | elevated further | – | – | –
